Measurements from US5480645A, “Hydroxyamines N-acyl derivatives having scavenger activity and useful in acute and chronic pathologies associated with peroxidation and inflammation phenomena” (LifeGroup S.p.A., priority 1992, dated 1996).
Where two headings read alike, the source gives them in different places. Where no end group is shown, it is not given here.

Tests used:
[1] = system: rat liver microsomes (membrane phospholipid peroxidation); assay: Antiperoxidative activity on rat liver microsomes, NADPH/Fe+2/ADP induced peroxidation (MDA formation); format: biochemical
Description: Before the final resuspension mitochondria ape washed with 0.125M KCl containing 15 mM Hepes/10 mM tris at pH=7.4. Rat liver microsomes are prepared as described by Ernster and Nordenbrand (Ernster, Nordenbrand K. Methods Enzymol. 1967, 10:574-80). […]
b) 20 mM Hepes-Tris buffer pH=7.4, 0.5 mM cumene hydroperoxide in the presence or in the absence of the compounds to be tested. The trials after incubation are interrupted with 1 ml 35% TCA which 30 mg BHT and 1 ml 1% TBA (thiobarbituric acid) have been added to. Subsequently the incubation is carried out for 15' at 90° C. in order to allow the development of the coloured adduct.
(§1) A common oxidation product, malonyldialdehyde (MDA), to the two oxidant systems described in (a) and in (b), is measured.
The formed MDA is evaluated by spectrophotometry at 532 nm and calculated by using a molar extinction coefficient of 156.000 (Buege J. A. and Aust S. D., Methods Enzymol., 52, 302-310, 1978).
The tested compounds are solubilized in the culture medium up to the desired concentrations (see tables 1-3). […]
The antiperoxidase activity is measured as % of inhibition of malonyldialdehyde formation.

C6 glioma cells = assay: Protection against 5 mM glutamate cytotoxicity in glioma C6 cultures
mast cells = assay: In vivo antidegranulating activity in rat mast cells (substance P induced); parameters: species or system Sprague Dawley rats
Description: 1. In vivo antidegranulating activity in rat mast cells.
The pharmacological treatment is preceded (20 min. before) by the degranulating stimulus induced by P substance (10^-6 M) injected in the auricular pinna. After 20 minutes from the degranulating stimulus, the animals are sacrificed. Their tissues are then taken (auricular pavilion) for the morphological aspect analysis of the mast cells residing in the connective tissues after fixation and coloration with toluidine blue.
The inhibition level of the mast cells degranulation in the animal tissue treated with the tested compounds in comparison with the animals treated only with the degranulating agent is considered as the parameter of the biological activity.
*the inhibition percentage is calculated considering that the effect of
the substance P is maximum (100% of mast cells degranulation).

Solubility = format: physicochemical; conditions: for solubility: organic solvent or mixture, read-out: solubility in org. solv.
[2] = system: granular cerebellar cells; assay: Protection against 2 mM glutamate cytotoxicity in immature granular cerebellar cell cultures
[3] = system: rat cerebellar granular cells; assay: Protection against glutamate neurotoxicity in rat cerebellar granular cell cultures; format: cell-based; conditions: glutamate alone, 50 μM; Table 4; control 100; 1440 min
Description: Primary cerebellar granular cell cultures are prepared from 8 days old Sprague-Dawly rats. Neurons are grown on 35 mm plates for 7-8 days. […] Glial cells proliferation is prevented by cytosine arabinose-furanoside.
Cells are washed in Locke solution free from Mg^2+ then replated in the conditionned culture medium.
The solution is diluted serially up to 10, 20 and 50 μM. The compounds at the desired concentrations are added to the cells at 37 ° C.; after 15' 50 μM glutamate free from Mg^2+ is added For 15 minutes at 22 ° C.
The cells are then washed 3 times with Locke solution, then added to the original culture medium and maintained at 37 ° C. in 5 % CO2 for 24 hours.
The cellular survival is measured by using a fluorescence microscope.

[4] = system: rat liver microsomes (membrane phospholipid peroxidation); assay: Antiperoxidative activity on rat liver microsomes, cumene hydroperoxide induced peroxidation (MDA formation); format: biochemical; conditions: 0.5 mM cumene hydroperoxyde, Table 3; for MDA: control 12.8
Description: b) 20 mM Hepes-Tris buffer pH=7.4, 0.5 mM cumene hydroperoxide in the presence or in the absence of the compounds to be tested. […] Subsequently the incubation is carried out for 15' at 90° C. in order to allow the development of the coloured adduct.
as §1
The tested compounds are solubilized in the culture medium up to the desired concentrations (see tables 1-3).
As peroxidant agent 0.5 mM cumene hydroperoxyde is used. As oxidation index the formation of malonyldialdehyde (MDA) is measured (nmoles/mg protein).

[5] = 40 μM, preincubation time 0 minutes, ADP/NADPH/Fe, Table 2
[6] = 40 μM, preincubation time 15 minutes, ADP/NADPH/Fe, Table 2
[7] = 40 μM, preincubation time 30 minutes, ADP/NADPH/Fe, Table 2
[8] = 40 μM, preincubation time 45 minutes, ADP/NADPH/Fe, Table 2
[9] = 40 μM, preincubation time 60 minutes, ADP/NADPH/Fe, Table 2
[10] = Rattus norvegicus, C6 glioma, 24 h, read-out: % Cell survival
[11] = 10 μM, NADPH/Fe+2/ATP, Table 1-A
[12] = 10 μM, NADPH/Fe+2/ATP, Table 1-A, control 42.5
[13] = 20 μM, NADPH/Fe+2/ATP, Table 1-A
[14] = 20 μM, NADPH/Fe+2/ATP, Table 1-A, control 42.5
[15] = Mus musculus, 24 h, read-out: % Cellular survival

Cc1c(C)c2c(c(C)c1OC(=O)CCC(=O)NCCO)CCC(C)(CCCC(C)CCCC(C)CCCC(C)C)O2 [Example 2, D-α-tocopherol acid succinate 2-hydroxyethylamide]
peroxidation inhibition [1, 5]: 1.40%
peroxidation inhibition [1, 6]: 17.30%
peroxidation inhibition [1, 7]: 29.50%
peroxidation inhibition [1, 8]: 37.90%
peroxidation inhibition [1, 9]: 40.90%
viability at 10 µM (C6 glioma cells; [10]): 10%
viability at 30 µM (C6 glioma cells; [10]): 80%
inhibition % (mast cells degranulation induced by substance P) (mast cells; s.c. 20 mg/kg, substance P 10^-6 M in auricular pinna, substance P effect taken as 100% degranulation): 38.5%
solubility (Solubility; in ethanol and chloroform): > 10000 µg/mL
water solubility (Solubility): slightly soluble

N[C@@H](CCC(=O)O)C(=O)O [Glutamate, reference compound]
cell death ([2]; 2 mM glutamate for 24 hours, immature granular cerebellar cells): 60+70%
% Cellular survival ([2]; glutamate alone, 2 mM, 24 hours, Table 6): 30%
cellular degeneration (C6 glioma cells; 5 mM glutamate for 24 hours): 90%
% Cell survival (C6 glioma cells; glutamate alone, 5 mM, 24 hours, Table 5): 7%
cell survival [3]: 3%

Cc1c(C)c2c(c(C)c1O)CC(CC(=O)O)O2 (centres unmarked) [5-hydroxy-4,6,7-trimethyl-2,3-dihydrobenzofuran-2-acetic acid, reference compound]
peroxidation inhibition [1, 11]: 0%
MDA [1, 12]: 44.19 nmoles/mg prot.
peroxidation inhibition [1, 13]: 12%
MDA [1, 14]: 37.3 nmoles/mg prot.
peroxidation inhibition ([4]; 20 μM): 28%
MDA ([4]; 20 μM): 9.25 nmoles/mg prot.
peroxidation inhibition ([4]; 50 μM): 42%
MDA ([4]; 50 μM): 7.5 nmoles/mg prot.

Cc1c(C)c2c(c(C)c1O)CCC(C)(C(=O)NCCCO)O2 (centres unmarked) [Example 4, N-(6-hydroxy-2,5,7,8-tetramethylchroman-2-carboxyl)-propanolamine]
peroxidation inhibition ([1]; 10 μM, Table 1-B, first series): 37%
MDA ([1]; 10 μM, Table 1-B, first series (control 46.27)): 28.96 nmoles/mg/protein
peroxidation inhibition ([1]; 20 μM, Table 1-B, first series): 95.5%
MDA ([1]; 20 μM, Table 1-B, first series (control 46.27)): 1.61 nmoles/mg/protein
peroxidation inhibition ([1]; 40 μM, Table 1-B, first series): 97.7%
MDA ([1]; 40 μM, Table 1-B, first series (control 46.27)): 1.07 nmoles/mg/protein
peroxidation inhibition ([1]; 60 μM, Table 1-B, first series): 97.7%
MDA ([1]; 60 μM, Table 1-B, first series (control 46.27)): 1.04 nmoles/mg/protein
peroxidation inhibition ([1]; 80 μM, Table 1-B, first series): 97.7%
MDA ([1]; 80 μM, Table 1-B, first series (control 46.27)): 1.07 nmoles/mg/protein
peroxidation inhibition ([1]; 100 μM, Table 1-B, first series): 99.3%
MDA ([1]; 100 μM, Table 1-B, first series (control 46.27)): 0.30 nmoles/mg/protein
viability at 1 µM [2, 15]: 39%
viability at 3 µM [2, 15]: 60%
viability at 10 µM [2, 15]: 77%
viability at 1 µM (C6 glioma cells; [10]): 10%
viability at 3 µM (C6 glioma cells; [10]): 94%
viability at 10 µM (C6 glioma cells; [10]): 90%
solubility (Solubility; in ethanol, DMSO, chloroform): > 10000 µg/mL
water solubility (Solubility): slightly soluble

CC(=O)OCCNC(=O)C1(C)CCc2c(C)c(OC(C)=O)c(C)c(C)c2O1 (centres unmarked) [Example 3, 6-acetoxy-2,5,7,8-tetramethyl-chroman-2-(2-acetoxyethyl)-carboxyamide]
peroxidation inhibition ([1]; 2.5 μM, Table 1-B, third series): 23.1%
MDA ([1]; 2.5 μM, Table 1-B, third series (control 37.4)): 28.8 nmoles/mg/protein
peroxidation inhibition ([1]; 5 μM, Table 1-B, third series): 41.6%
MDA ([1]; 5 μM, Table 1-B, third series (control 37.4)): 21.8 nmoles/mg/protein
peroxidation inhibition ([1]; 10 μM, Table 1-B, third series): 53.8%
MDA ([1]; 10 μM, Table 1-B, third series (control 37.4)): 17.2 nmoles/mg/protein
peroxidation inhibition ([1]; 20 μM, Table 1-B, third series): 62.1%
MDA ([1]; 20 μM, Table 1-B, third series (control 37.4)): 14.1 nmoles/mg/protein
viability at 1 µM [2, 15]: 49%
viability at 10 µM [2, 15]: 60%
viability at 30 µM [2, 15]: 77%
viability at 1 µM (C6 glioma cells; [10]): 17%
viability at 3 µM (C6 glioma cells; [10]): 40%
viability at 10 µM (C6 glioma cells; [10]): 82%
solubility (Solubility; in ethanol): > 10000 µg/mL
water solubility (Solubility): slightly soluble

Cc1c(C)c2c(c(C)c1O)CC(CC(=O)NCCCO)O2 (centres unmarked) [Example 5, N-[2-(2,3-dihydro-5-hydroxy-4,6,7-trimethylbenzofuran)-acetyl]-propanolamine]
peroxidation inhibition ([1]; 10 μM, Table 1-B, second series): 24.0 ± 1.0%
MDA ([1]; 10 μM, Table 1-B, second series (control 42.50 ± 2.4)): 32.32 ± 0.4 nmoles/mg/protein
peroxidation inhibition ([1]; 20 μM, Table 1-B, second series): 58.0 ± 7.0%
MDA ([1]; 20 μM, Table 1-B, second series (control 42.50 ± 2.4)): 17.87 ± 2.9 nmoles/mg/protein
peroxidation inhibition ([1]; 40 μM, Table 1-B, second series): 94.0 ± 3.0%
MDA ([1]; 40 μM, Table 1-B, second series (control 42.50 ± 2.4)): 2.57 ± 1.3 nmoles/mg/protein
peroxidation inhibition ([1]; 60 μM, Table 1-B, second series): 95.0 ± 3.0%
MDA ([1]; 60 μM, Table 1-B, second series (control 42.50 ± 2.4)): 2.10 ± 1.2 nmoles/mg/protein
peroxidation inhibition ([1]; 80 μM, Table 1-B, second series): 94.0 ± 3.0%
MDA ([1]; 80 μM, Table 1-B, second series (control 42.50 ± 2.4)): 2.54 ± 1.3 nmoles/mg/protein
viability at 1 µM [2, 15]: 52%
viability at 10 µM [2, 15]: 83%
viability at 30 µM [2, 15]: 86%
viability at 1 µM (C6 glioma cells; [10]): 8%
viability at 3 µM (C6 glioma cells; [10]): 66%
viability at 10 µM (C6 glioma cells; [10]): 91%
solubility (Solubility; in ethanol, DMSO, chloroform): > 10000 µg/mL
water solubility (Solubility): slightly soluble

substance P: degranulating stimulus injected in the auricular pinna (RPKPQQFFGLM; ends and bridges not checked; UniProt P20366 58-68, looked up) [reference compound]
mast cells degranulation (mast cells; induced by substance P, of the numbered mast cells): 85-95%

Cc1c(C)c2c(c(C)c1O)CCC(C)(C(=O)O)O2 (centres unmarked) [6-hydroxy-2,5,7,8-tetramethylchroman-2-carboxylic acid, reference compound]
viability at 10 µM [2, 15]: 43%
viability at 50 µM [2, 15]: 54%
viability at 100 µM [2, 15]: 84%
viability at 10 µM (C6 glioma cells; [10]): 7%
viability at 30 µM (C6 glioma cells; [10]): 37%
viability at 100 µM (C6 glioma cells; [10]): 94%

CC(=O)Oc1c(C)c(C)c2c(c1C)CCC(C)(CCC[C@H](C)CCC[C@H](C)CCCC(C)C)O2 (some centres unmarked) [Vit. E acetate, reference compound]
peroxidation inhibition [1, 11]: 0%
MDA [1, 12]: 51.08 nmoles/mg prot.
peroxidation inhibition [1, 13]: 0%
MDA [1, 14]: 49.34 nmoles/mg prot.
peroxidation inhibition [1, 5]: 1.90%
peroxidation inhibition [1, 6]: 18.20%
peroxidation inhibition [1, 7]: 28.95%
peroxidation inhibition [1, 8]: 35.80%
peroxidation inhibition [1, 9]: 40.35%
inhibition of the peroxidation induced by NADPH/Fe+2/ADP (in words) ([1]; in vitro, 10 to 50 μM dose/effect relationship for the test compound): inactive in the in-vitro systems
peroxidation inhibition ([4]; 20 μM): 0%
MDA ([4]; 20 μM): 14.29 nmoles/mg prot.
peroxidation inhibition ([4]; 50 μM): 0%
MDA ([4]; 50 μM): 11.57 nmoles/mg prot.
